Measurements published in PubChem BioAssay AID338 (DTP/NCI, 2004).
“And” between values parts separate entries of the source, which are not always exact repeats. Equal values may be shown once. Inconclusive results and toxic doses are left out.

Test system: BDF1 mice, P388 leukemia (terephthalanilide-resistant), survival T/C
Assay: NCI In Vivo Anticancer Drug Screen. Data for tumor model P388 Leukemia resistant to A Terephthalanilide; NSC 38280 (intraperitoneal) in B6D2F1 (BDF1) mice
Details: endpoint: median survival time, higher = longer survival
Procedure: The antitumor activity of compounds was measured in mice bearing transplantable tumors. Survival or tumor size were measured and the results are expressed as the measurement made in the treated group (T) divided by the measurement made in the vehicle treated control group (C). The tumor model used in this assay is P388 Leukemia resistant to A Terephthalanilide; NSC 38280 (intraperitoneal) in B6D2F1 (BDF1) mice

[1] = dose: 31.3 mg/kg/injection, schedule: Q01DX010 (ip), vehicle: saline
[2] = dose: 62.5 mg/kg/injection, schedule: Q01DX010 (ip), vehicle: saline
[3] = dose: 125.0 mg/kg/injection, schedule: Q01DX010 (ip), vehicle: saline
[4] = dose: 12.0 mg/kg/injection, schedule: Q01DX010 (ip), vehicle: saline
[5] = dose: 25.0 mg/kg/injection, schedule: Q01DX010 (ip), vehicle: saline
[6] = dose: 100.0 mg/kg/injection, schedule: Q01DX010 (ip), vehicle: saline
[7] = dose: 6.25 mg/kg/injection, schedule: Q01DX010 (ip), vehicle: saline
[8] = dose: 12.5 mg/kg/injection, schedule: Q01DX010 (ip), vehicle: saline
[9] = dose: 27.0 mg/kg/injection, schedule: Q01DX010 (ip), vehicle: saline
[10] = dose: 40.0 mg/kg/injection, schedule: Q01DX010 (ip), vehicle: saline
[11] = dose: 90.0 mg/kg/injection, schedule: Q01DX010 (ip), vehicle: saline
[12] = dose: 6.0 mg/kg/injection, schedule: Q01DX010 (ip), vehicle: saline
[13] = dose: 250.0 mg/kg/injection, schedule: Q01DX010 (ip), vehicle: saline
[14] = dose: 60.0 mg/kg/injection, schedule: Q01DX010 (ip), vehicle: saline
[15] = dose: 50.0 mg/kg/injection, schedule: Q01DX010 (ip), vehicle: saline
[16] = dose: 200.0 mg/kg/injection, schedule: Q01DX010 (ip), vehicle: saline

With `CCn1cnc2c(=S)nc[nH]c21` the T/C (dose: 15.6 mg/kg/injection, schedule: Q01DX010 (ip), vehicle: saline) was 100 % of control and 105 % of control, the T/C [1] was 105 % of control and 110 % of control and the T/C [2] was 94 % of control and 100 % of control. The T/C [3] was 110 % of control.
`CN(C)c1ccc(/C=C\c2ccnc3ccccc23)cc1` was tested, and the T/C (dose: 1.5 mg/kg/injection, schedule: Q01DX010 (ip), vehicle: saline) was 91 % of control and the T/C [4] was 91 % of control.
`CCN(CC)CCNc1ccc(C)c2sc3ccccc3c(=O)c12` was tested, and the T/C [5] was 105 % of control and 122 % of control and the T/C [6] was 100 % of control.
In the case of `O=c1cnn(C2OC(CO)C(O)C2O)c(=O)[nH]1` (stereo not given), the T/C (dose: 800.0 mg/kg/injection, schedule: Q01DX010 (ip), vehicle: saline) is reported as 120 % of control and the T/C (dose: 1600.0 mg/kg/injection, schedule: Q01DX010 (ip), vehicle: saline) is reported as 110 % of control.
`O=NN(CCCl)C(=O)NCCCl` was tested, and the T/C [7] was 225 % of control and 245 % of control, the T/C [8] was 215 % of control and 300 % of control and the T/C [5] was 110 % of control.
For `O=C(Nc1cccc(NC(=O)Nc2cccc(C3=NCCN3)c2)c1)Nc1cccc(C2=NCCN2)c1`, the T/C [9] was 111 % of control, the T/C [10] was 111 % of control and the T/C (dose: 66.0 mg/kg/injection, schedule: Q01DX010 (ip), vehicle: saline) was 111 % of control. The T/C [11] was 111 % of control.
`CN(C)c1nc(N(C)C)nc(N(C)C)n1` was tested, and the T/C (dose: 18.8 mg/kg/injection, schedule: Q01DX010 (ip), vehicle: saline) was 100 % of control and 116 % of control, the T/C (dose: 37.5 mg/kg/injection, schedule: Q01DX010 (ip), vehicle: saline) was 100 % of control and 105 % of control and the T/C (dose: 75.0 mg/kg/injection, schedule: Q01DX010 (ip), vehicle: saline) was 100 % of control and 111 % of control. For the same compound, the T/C (dose: 150.0 mg/kg/injection, schedule: Q01DX010 (ip), vehicle: saline) was 100 % of control and 105 % of control.
`CN(C)c1ccc(/C=C/c2ccnc3ccccc23)cc1` was tested, and the T/C (dose: 5.0 mg/kg/injection, schedule: Q01DX010 (ip), vehicle: saline) was 100 % of control and 111 % of control, the T/C (dose: 10.0 mg/kg/injection, schedule: Q01DX010 (ip), vehicle: saline) was 100 % of control and 111 % of control and the T/C (dose: 20.0 mg/kg/injection, schedule: Q01DX010 (ip), vehicle: saline) was 90 % of control and 94 % of control. The T/C [10] was 116 % of control.
With `S=P(N1CC1)(N1CC1)N1CC1` the T/C (dose: 0.75 mg/kg/injection, schedule: Q01DX010 (ip), vehicle: saline) was 112 % of control and the T/C [12] was 162 % of control.
In the case of `CCOC(=O)NP(=O)(N1CC1(C)C)N1CC1(C)C` (stereo not given), the T/C [1] is reported as 110 % of control, the T/C [2] is reported as 160 % of control and the T/C [3] is reported as 190 % of control. The T/C [13] was 160 % of control.
With `CN(N=O)C(=O)NC(C=O)C(O)C(O)C(O)CO` (stereo not given) the T/C [9] was 109 % of control, the T/C [10] was 113 % of control and the T/C [14] was 154 % of control. The T/C [11] was 113 % of control.
`O=C(Nc1ccc(NC(=O)Nc2ccc(C3=NCCN3)cc2)cc1)Nc1ccc(C2=NCCN2)cc1` was tested, and the T/C (dose: 110.0 mg/kg/injection, schedule: Q01DX010 (ip), vehicle: saline) was 111 % of control.
`CN(Cc1cnc2nc(N)nc(N)c2n1)c1ccc(C(=O)N[C@@H](CCC(=O)O)C(=O)O)cc1` was tested, and the T/C (dose: 0.19 mg/kg/injection, schedule: Q01DX010 (ip), vehicle: other) was 122 % of control, the T/C (dose: 0.38 mg/kg/injection, schedule: Q01DX Z (ip), vehicle: saline) was 172 % of control and 195 % of control and the T/C (dose: 0.75 mg/kg/injection, schedule: Q01DX010 (ip), vehicle: other) was 194 % of control. The T/C (dose: 0.75 mg/kg/injection, schedule: Q01DX Z (ip), vehicle: saline) was 272 % of control and 277 % of control, the T/C (dose: 1.5 mg/kg/injection, schedule: Q01DX010 (ip), vehicle: other) was 216 % of control and the T/C (dose: 1.5 mg/kg/injection, schedule: Q01DX Z (ip), vehicle: saline) was 213 % of control and 272 % of control. For the same compound, the T/C (dose: 3.0 mg/kg/injection, schedule: Q01DX010 (ip), vehicle: other) was 111 % of control and the T/C (dose: 3.0 mg/kg/injection, schedule: Q01DX Z (ip), vehicle: saline) was 90 % of control and 95 % of control.
In the case of `O=C(Nc1ccc(C2=NCCN2)cc1)c1ccc(C(=O)Nc2ccc(C3=NCCN3)cc2)c(NC(=O)c2ccc(C(=O)Nc3cc(C(=O)Nc4ccc(C5=NCCN5)cc4)ccc3C(=O)Nc3ccc(C4=NCCN4)cc3)cc2)c1`, the T/C [5] is reported as 100 % of control, the T/C [15] is reported as 94 % of control and the T/C [6] is reported as 94 % of control. The T/C [16] was 100 % of control.
For `COc1cc(-c2ccc(Nc3ccccc3C(=O)O)c(OC)c2)ccc1Nc1ccccc1C(=O)O`, the T/C (dose: 67.0 mg/kg/injection, schedule: Q01DX010 (ip), vehicle: saline) was 159 % of control and the T/C [6] was 159 % of control.
`O=C(Nc1ccc(C2=NCCN2)cc1)c1ccc(C(=O)Nc2ccc(C3=NCCN3)cc2)c([N+](=O)[O-])c1` was tested, and the T/C [12] was 110 % of control and 122 % of control, the T/C (dose: 8.0 mg/kg/injection, schedule: Q01DX010 (ip), vehicle: saline) was 110 % of control and 122 % of control and the T/C [4] was 122 % of control. The T/C (dose: 18.0 mg/kg/injection, schedule: Q01DX010 (ip), vehicle: saline) was 88 % of control and 105 % of control.
In the case of `O=c1cn[nH]c(=O)[nH]1`, the T/C [2] is reported as 105 % of control, the T/C [3] is reported as 111 % of control and the T/C [13] is reported as 90 % of control and 105 % of control. The T/C (dose: 500.0 mg/kg/injection, schedule: Q01DX010 (ip), vehicle: saline) was 88 % of control.
`NC(Cc1ccc(N(CCCl)CCCl)cc1)C(=O)O` (stereo not given) was tested, and the T/C (dose: 2.0 mg/kg/injection, schedule: Q01DX010 (ip), vehicle: other) was 163 % of control and the T/C (dose: 4.0 mg/kg/injection, schedule: Q01DX010 (ip), vehicle: other) was 100 % of control.
`N#CCSc1ncnc2nc[nH]c12` was tested, and the T/C (dose: 15.0 mg/kg/injection, schedule: Q01DX010 (ip), vehicle: saline) was 100 % of control, the T/C (dose: 30.0 mg/kg/injection, schedule: Q01DX010 (ip), vehicle: saline) was 100 % of control and the T/C [14] was 105 % of control and 109 % of control. The T/C (dose: 120.0 mg/kg/injection, schedule: Q01DX010 (ip), vehicle: saline) was 100 % of control.
`C[C@]12C=CC(=O)C=C1CC[C@@H]1[C@@H]2[C@@H](O)C[C@@]2(C)[C@H]1CC[C@]2(O)C(=O)CO` was tested, and the T/C (dose: 12.5 mg/kg/injection, schedule: Q01DX010 (sc), vehicle: steriod suspending solution) was 112 % of control, the T/C (dose: 25.0 mg/kg/injection, schedule: Q01DX010 (sc), vehicle: steriod suspending solution) was 118 % of control and the T/C (dose: 50.0 mg/kg/injection, schedule: Q01DX010 (sc), vehicle: steriod suspending solution) was 106 % of control. For the same compound, the T/C (dose: 100.0 mg/kg/injection, schedule: Q01DX010 (sc), vehicle: steriod suspending solution) was 112 % of control.
In the case of `O=C1C(NC(=O)C2CCCCC2)=C(N2CC2)C(=O)C(NC(=O)C2CCCCC2)=C1N1CC1`, the T/C [16] is reported as 90 % of control.
`CC[C@]1(O)C[C@H]2CN(CCc3c([nH]c4ccccc34)[C@@](C(=O)OC)(c3cc4c(cc3OC)N(C=O)[C@H]3[C@@](O)(C(=O)OC)[C@H](OC(C)=O)[C@]5(CC)C=CCN6CC[C@]43[C@@H]65)C2)C1` was tested, and the T/C (dose: 0.03 mg/kg/injection, schedule: Q01DX010 (ip), vehicle: saline) was 105 % of control, the T/C (dose: 0.03 mg/kg/injection, schedule: Q01DX Z (ip), vehicle: saline) was 90 % of control and 100 % of control and the T/C (dose: 0.06 mg/kg/injection, schedule: Q01DX010 (ip), vehicle: saline) was 100 % of control. For the same compound, the T/C (dose: 0.06 mg/kg/injection, schedule: Q01DX Z (ip), vehicle: saline) was 95 % of control, the T/C (dose: 0.12 mg/kg/injection, schedule: Q01DX010 (ip), vehicle: saline) was 111 % of control and the T/C (dose: 0.13 mg/kg/injection, schedule: Q01DX Z (ip), vehicle: saline) was 100 % of control. The T/C (dose: 0.25 mg/kg/injection, schedule: Q01DX010 (ip), vehicle: saline) was 94 % of control, the T/C (dose: 0.25 mg/kg/injection, schedule: Q01DX Z (ip), vehicle: saline) was 100 % of control and the T/C (dose: 0.5 mg/kg/injection, schedule: Q01DX Z (ip), vehicle: saline) was 95 % of control and 100 % of control.
`CCCNc1ncnc2[nH]ncc12` was tested, and the T/C (dose: 3.13 mg/kg/injection, schedule: Q01DX010 (ip), vehicle: saline) was 95 % of control and 105 % of control, the T/C [7] was 100 % of control and the T/C [8] was 90 % of control and 94 % of control. For the same compound, the T/C [5] was 110 % of control and the T/C [13] was 111 % of control.
For `N=C(N)c1ccc(Nc2ccc(C(=N)N)cc2)cc1`, the T/C (dose: 3.0 mg/kg/injection, schedule: Q01DX010 (ip), vehicle: saline) was 105 % of control, the T/C [12] was 100 % of control and the T/C [4] was 90 % of control.
With `CS(=O)(=O)OCC(O)C(O)C(O)C(O)COS(C)(=O)=O` (stereo not given) the T/C [15] was 100 % of control, the T/C [6] was 100 % of control and the T/C [16] was 100 % of control. For the same compound, the T/C (dose: 400.0 mg/kg/injection, schedule: Q01DX010 (ip), vehicle: saline) was 100 % of control.
